In patent US20260297042A1, “BIARYLAMIDE DERIVATIVES AND THEIR USE AS PKMYT1 INHIBITORS” (CANCER RESEARCH TECHNOLOGY LIMITED, priority 2023, published 2026):
pIC50: −log10 of the molar value.

Columns and labels:
WEE1 = molecular target: T1, WEE1 (Homo sapiens, UniProt P30291); experiment: Selectivity versus WEE1 assay (ADP-Glo enzymatic assay); format: biochemical; conditions: for pIC50: ADP-Glo; for PKMYT1 vs. WEE1 selectivity: fold difference in selectivity for PKMYT1 over WEE1
T1 construct: purchased Thermo Fisher PR7373A
T1 sequence (P30291 whole entry): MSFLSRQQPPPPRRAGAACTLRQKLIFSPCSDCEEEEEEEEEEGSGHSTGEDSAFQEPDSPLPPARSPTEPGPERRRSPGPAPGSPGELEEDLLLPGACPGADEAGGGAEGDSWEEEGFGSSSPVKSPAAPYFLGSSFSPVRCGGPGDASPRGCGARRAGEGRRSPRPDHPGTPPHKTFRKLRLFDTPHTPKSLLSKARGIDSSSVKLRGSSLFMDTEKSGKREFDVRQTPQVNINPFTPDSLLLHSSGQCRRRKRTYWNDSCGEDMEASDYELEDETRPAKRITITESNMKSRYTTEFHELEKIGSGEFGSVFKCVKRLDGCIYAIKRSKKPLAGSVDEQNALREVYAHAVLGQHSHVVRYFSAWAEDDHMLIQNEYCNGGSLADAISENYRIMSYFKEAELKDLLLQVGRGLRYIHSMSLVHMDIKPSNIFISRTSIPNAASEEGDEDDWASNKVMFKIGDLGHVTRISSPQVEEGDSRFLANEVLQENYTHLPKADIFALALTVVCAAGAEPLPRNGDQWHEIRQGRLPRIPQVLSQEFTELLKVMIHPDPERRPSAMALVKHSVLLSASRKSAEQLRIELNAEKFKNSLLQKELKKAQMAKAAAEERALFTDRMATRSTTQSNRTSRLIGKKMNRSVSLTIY
Summary of the method: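 ADP-Glo luminescence read-out after a 60 min reaction at 26° C, initiated by 30 µM ATP, with 15 nM enzyme in HEPES pH 7.5/MgCl2/EGTA/Brij-35 buffer containing 1% DMSO. Replicate IC50 values had to agree within 3-fold and fits needed r2 >0.9.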

[1] = molecular target: T2, Cellular PKMYT1 Biomarker CDK1 pT14 (Homo sapiens, UniProt Q99640); experiment: Inhibition of cellular PKMYT1 biomarker CDK1 pT14 in OVCAR 3 cells (immunoblot); format: cell-based; conditions: 20 hours incubation
T2 construct: read-out CDK1 phospho-T14 immunoblot
T2 sequence (Q99640 1-499): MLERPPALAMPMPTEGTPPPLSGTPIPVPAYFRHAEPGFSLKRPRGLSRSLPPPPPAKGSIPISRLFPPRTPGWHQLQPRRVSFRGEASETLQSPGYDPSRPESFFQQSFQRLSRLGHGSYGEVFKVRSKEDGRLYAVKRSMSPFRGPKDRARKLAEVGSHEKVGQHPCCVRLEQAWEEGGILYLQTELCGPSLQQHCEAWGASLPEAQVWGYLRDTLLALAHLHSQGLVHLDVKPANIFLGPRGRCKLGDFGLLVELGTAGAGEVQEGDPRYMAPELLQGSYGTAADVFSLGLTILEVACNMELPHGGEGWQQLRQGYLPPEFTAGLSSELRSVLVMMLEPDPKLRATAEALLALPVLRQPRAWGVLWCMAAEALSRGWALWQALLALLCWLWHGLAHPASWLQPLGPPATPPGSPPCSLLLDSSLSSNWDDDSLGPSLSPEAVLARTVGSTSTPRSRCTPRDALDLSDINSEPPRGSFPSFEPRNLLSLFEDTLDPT
Experimental: To determine compound PKMYT1 IC50 in a cellular assay, OVCAR 3 cells were incubated at 37° C. in 5% CO2 atmosphere. The cells were maintained in RPMI medium supplemented with 20% foetal bovine serum, 1X non essential amino acids, 1 mM sodium pyruvate, Glutamax and insulin. Cells were seeded into 12-well plates at low density (50,000-200,000 cells per well), grown to confluence (~350-400,000 cells per well) and then treated with a range of concentrations of PKMYT1 inhibitors. The cells were incubated 20 hours and then harvested into 1X Laemmli Sample Buffer (BIORAD) without 2-mercaptoethanol, heated to 95° C. for 5 min, centrifuged and sonicated using a microprobe for 15 sec, 21W to shear the DNA.
The samples were analysed by immunoblot on a Jess Automated Western Blot System (BioTechne). The samples were separated using the 12-230 kDa Separation Module (BioTechne,) and blotted using an anti-CDK1 phospho T14 antibody (Abcam, #ab58509) and an anti-vinculin antibody (Abcam, #126002). Specific binding was detected by fluorescence using the Anti-Rabbit Detection Module (BioTechne, #DM-001), quantified using Compass for Simple Western software, and IC50 values were calculated by regression analysis in GraphPad Prism.

Human PKMYT1 = molecular target: T3, Human PKMYT1 (Homo sapiens, UniProt Q99640); experiment: PKMYT1 biochemical ADP-Glo enzymatic assay; conditions: ADP-Glo
T3 construct: Human PKMYT1 75-362 was cloned as a TEV cleavable 6xHis fusion; 6xHis (TEV cleavable) (cleaved yes); made in house; host or cells: bacterial cells
T3 sequence (Q99640 75-362): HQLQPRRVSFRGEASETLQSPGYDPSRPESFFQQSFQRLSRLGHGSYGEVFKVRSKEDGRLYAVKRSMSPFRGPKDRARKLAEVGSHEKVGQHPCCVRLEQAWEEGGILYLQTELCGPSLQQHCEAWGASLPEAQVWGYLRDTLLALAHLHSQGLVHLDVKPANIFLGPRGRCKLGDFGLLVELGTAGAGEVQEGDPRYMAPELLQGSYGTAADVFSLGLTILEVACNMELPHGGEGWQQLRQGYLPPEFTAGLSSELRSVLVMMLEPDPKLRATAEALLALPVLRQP
Summary of the method: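 Luminescent ADP-Glo Max read-out of ADP produced by 15 nM PKMYT1 (residues 75-362, bacterial, His-tag removed) from 500 µM ATP without peptide substrate. Reaction: 50 mM HEPES pH 7.5, 10 mM MgCl2, 1 mM EGTA, 0.01% Brij-35, 60 min, 26 °C. IC50 values fitted from 10-point curves.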

OVCAR 3 cells = experiment: Cancer cell line proliferation assay, ATP-based cell viability (Cell Titre Glow), OVCAR 3 (CCNE1-amplified); conditions: KYSE30 (normal CCNE1) GI50 vs. OVCAR 3 (CCNE1-amplified) GI50
Summary of the method: (§1)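 Proliferation of KYSE-30 (normal CCNE1) and CCNE1-amplified OVCAR 3 ovarian cancer cells treated with PKMYT1 inhibitors, read by Cell Titre Glow luminescence. GI50 is the concentration giving 50% growth inhibition.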

KYSE-30 cells = experiment: Cancer cell line proliferation assay, ATP-based cell viability (Cell Titre Glow), KYSE-30 (normal CCNE1); conditions: Homo sapiens, KYSE-30 cells (normal CCNE1), concentration that achieves 50% cell growth proliferation inhibition, read-out: KYSE30 Gl50
Summary of the method: as §1

[2] = 15 nM WEE1, 60 minutes at 26° C., banded
[3] = banded, ">N" = at least in this band but could be higher
[4] = 15 nM PKMYT1 kinase domain, 500 µM ATP, 60 minutes at 26° C., banded
[5] = PKMYT1 kinase domain 15 nM, banded values

Row | Compound | pIC50 (WEE1; [2]) | PKMYT1 vs. WEE1 selectivity (WEE1; [3]) | pIC50 [1] | pIC50 (Human PKMYT1; [4]) | pIC50 (Human PKMYT1; [5]) | pIC50 (WEE1; WEE1 15 nM, banded values) | PKMYT1 vs. WEE1 selectivity (WEE1; banded) | Selectivity ratio KYSE30 Gl50 vs. OVCAR3 Gl50 (OVCAR 3 cells) | GI50 (KYSE-30 cells)
1 | Cc1nc(Nc2ncc(C(=O)Nc3c(C)ccc(O)c3C)s2)cc(N2CCN(CCO)CC2)n1 [BAA-220, N-(3-hydroxy-2,6-dimethyl-phenyl)-2-[[6-[4-(2-hydroxyethyl)piperazin-1-yl]-2-methyl-pyrimidin-4-yl]amino]thiazole-5-carboxamide] | 6.00 to 7.30 | W (10-<100 fold) | 6.00 to 7.00 | > 7.30 | – | – | – | Y (>20 fold) | > 5000 nM
2 | Cc1ccc(O)c(C)c1NC(=O)c1cnc(Nc2cccc(CC(=O)N(C)C3CC3)n2)s1 [BAA-428, 2-((6-(2-(Cyclopropyl(methyl)amino)-2-oxoethyl)pyridin-2-yl)amino)-N-(3-hydroxy-2,6-dimethylphenyl)thiazole-5-carboxamide] | – | – | > 7.00 | – | > 7.30 | – | – | Y (>20 fold) | > 5000 nM
3 | COCCN(C)C(=O)Cn1cc(C)c(Nc2ncc(C(=O)Nc3c(C)ccc(O)c3C)s2)n1 [BAA-549, N-(3-Hydroxy-2,6-dimethylphenyl)-2-((1-(2-((2-methoxyethyl)(methyl)amino)-2-oxoethyl)-4-methyl-1H-pyrazol-3-yl)amino)thiazole-5-carboxamide] | – | – | > 7.00 | – | > 7.30 | < 4.96 | X (100-<1000 fold) | – | –
4 | Cc1cn(CC(=O)N2CCCC2)nc1Nc1ncc(C(=O)Nc2c(C)cc(Cl)c(O)c2C)s1 [BAA-553, N-(4-chloro-3-hydroxy-2,6-dimethylphenyl)-2-((4-methyl-1-(2-oxo-2-(pyrrolidin-1-yl)ethyl)-1H-pyrazol-3-yl)amino) thiazole-5-carboxamide] | – | – | 6.00 to 7.00 | – | 6.00 to 7.30 | < 4.96 | X (100-<1000 fold) | – | –
5 | CCN(CC)C(=O)C(CO)n1cc(C)c(Nc2ncc(C(=O)Nc3c(C)ccc(O)c3C)s2)n1 (stereo not drawn) [BAA-576, 2-((1-(1-(diethylamino)-3-hydroxy-1-oxopropan-2-yl)-4-methyl-1H-pyrazol-3-yl)amino)-N-(3-hydroxy-2,6-dimethylphenyl)thiazole-5-carboxamide] | – | – | > 7.00 | – | > 7.30 | 4.96 to 6.00 | X (100-<1000 fold) | – | –
6 | COCC(C(=O)N1CCCC1)n1cc(C)c(Nc2ncc(C(=O)Nc3c(C)ccc(O)c3C)s2)n1 (stereo not drawn) [BAA-577, N-(3-Hydroxy-2.6-dimethylphenyl)-2-((1-(3-methoxy-1-oxo-1-(pyrrolidin-1-yl)propan-2-yl)-4-methyl-1H-pyrazol-3-yl)amino)thiazole-5-carboxamide] | – | – | > 7.00 | – | > 7.30 | < 4.96 | X (100-<1000 fold) | – | –
7 | Cc1cc(Nc2ncc(C(=O)Nc3c(C)ccc(O)c3C)s2)ncn1 [BAA-580, N-(3-hydroxy-2,6-dimethylphenyl)-2-((6-methylpyrimidin-4-yl)amino)thiazole-5-carboxamide] | – | – | 6.00 to 7.00 | – | > 7.30 | 4.96 to 6.00 | X (100-<1000 fold) | – | –
8 | Cc1ccc(O)c(C)c1NC(=O)c1cnc(Nc2n[nH]cc2F)s1 [BAA-593, 2-((4-Fluoro-1H-pyrazol-3-yl)amino)-N-(3-hydroxy-2,6-dimethylphenyl)thiazole-5-carboxamide] | – | – | 6.00 to 7.00 | – | > 7.30 | 4.96 to 6.00 | X (100-<1000 fold) | – | –
9 | Cc1ccc(O)c(C)c1NC(=O)c1cnc(Nc2ccn(C3CCN(C)C3=O)n2)s1 (stereo not drawn) [BAA-601, N-(3-hydroxy-2,6-dimethylphenyl)-2-((1-(1-methyl-2-oxopyrrolidin-3-yl)-1H-pyrazol-3-yl)amino)thiazole-5-carboxamide] | – | – | 6.00 to 7.00 | – | > 7.30 | < 4.96 | X (100-<1000 fold) | – | –
10 | Cc1ccc(O)c(C)c1NC(=O)c1cnc(Nc2nccc3cccnc23)s1 [BAA-604, 2-((1,7-naphthyridin-8-yl)amino)-N-(3-hydroxy-2,6-dimethylphenyl)thiazole-5-carboxamide] | – | – | 6.00 to 7.00 | – | > 7.30 | < 4.96 | Y (1000-5000 fold) | – | –

Second part, led by results:

Row | pIC50 (WEE1; [2]) | PKMYT1 vs. WEE1 selectivity (WEE1; [3]) | pIC50 [1] | pIC50 (Human PKMYT1; [4]) | pIC50 (Human PKMYT1; [5]) | pIC50 (WEE1; WEE1 15 nM, banded values) | PKMYT1 vs. WEE1 selectivity (WEE1; banded) | Compound | Selectivity ratio KYSE30 Gl50 vs. OVCAR3 Gl50 (OVCAR 3 cells) | GI50 (KYSE-30 cells)
11 | 4.96 to 6.00 | X (100-<1000 fold) | > 7.00 | > 7.30 | – | – | – | Cc1ccc(O)c(C)c1NC(=O)c1cnc(Nc2nn(C)c3ccccc23)s1 [BAA-126, N-(3-hydroxy-2,6-dimethyl-phenyl)-2-[(1-methylindazol-3-yl)amino]thiazole-5-carboxamide] | Y (>20 fold) | > 5000 nM
12 | 4.96 to 6.00 | X (100-<1000 fold) | > 7.00 | > 7.30 | – | – | – | Cc1ccc(O)c(C)c1NC(=O)c1cnc(Nc2c3cccnc3nn2C)s1 [BAA-243, N-(3-hydroxy-2,6-dimethylphenyl)-2-((2-methyl-2H-pyrazolo[3,4-b]pyridin-3-yl)amino)thiazole-5-carboxamide] | X (3-20 fold) | > 5000 nM
13 | < 4.96 | Y (1000-5000 fold) | > 7.00 | > 7.30 | – | – | – | Cc1cn(S(=O)(=O)C(C)C)nc1Nc1ncc(C(=O)Nc2c(C)ccc(O)c2C)s1 [BAA-268, N-(3-hydroxy-2,6-dimethylphenyl)-2-((1-(isopropylsulfonyl)-4-methyl-1H-pyrazol-3-yl)amino) thiazole-5-carboxamide] | Y (>20 fold) | > 5000 nM
14 | 6.00 to 7.30 | W (10-<100 fold) | > 7.00 | > 7.30 | – | – | – | Cc1cn(C2COC2)nc1Nc1ncc(C(=O)Nc2c(C)ccc(O)c2C)s1 [BAA-269, N-(3-hydroxy-2,6-dimethylphenyl)-2-((4-methyl-1-(oxetan-3-yl)-1H-pyrazol-3-yl)amino) thiazole-5-carboxamide] | Y (>20 fold) | 500 to 5000 nM
15 | 4.96 to 6.00 | X (100-<1000 fold) | > 7.00 | > 7.30 | – | – | – | Cc1cn(C2CCC2)nc1Nc1ncc(C(=O)Nc2c(C)ccc(O)c2C)s1 [BAA-270, 2-((1-cyclobutyl-4-methyl-1H-pyrazol-3-yl)amino)-N-(3-hydroxy-2,6-dimethylphenyl)thiazole-5-carboxamide] | Y (>20 fold) | < 500 nM
